The results in this text go back to US20100120711A1, “AMPK POTENTIATOR CONTAINING CHITO-OLIGOSACCHARIDE” (AMOREPACIFIC CORPORATION, priority 2006, published 2010).

Structures are written as SMILES.

Common to all, as to format: cell-based
In one experiment the test system is AMPK. Description: AMPK activation: western blot of AMPK and p-AMPK protein expression in liver cells. Conditions: HepG2 liver cells; AICAR 1 mM; chito-oligosaccharide 100, 500 ppm; western blot optical density. The method, then: (§1) Chito-oligosaccharides with a molecular weight of 2,000 and 9,000 (100, 500 ppm) and liver cells (HepG2) treated by AICAR (1 mM) were added to a lysis buffer (50 mM Tris-HCl, pH 7.4, 150 mM NaCl, 0.1% SDS, 1.0% Triton X-100. 0.25% Deoxycholate, 1 mM EDTA, 1 mM PMSF) to disrupt the cells. The homogenate was centrifuged at 12,000 rpm for 15 minutes and a layer of protein was obtained. The degree of expression of ACC and p-ACC proteins was determined by a western blotting. 50 μg of protein was loaded on SDS-polyacrylamide gel, electrophoresis was carried out, and the gel was transferred to a nitrocellulose membrane. The membrane was reacted with blocking solution (5% skim milk, 10 mM Tris, pH7.5, 10 mM NaCl, 0.1% Tween 20) for 1 hour to remove nonspecific bindings, the primary antibodies to AMPK and p-AMPK proteins were added and it was maintained overnight at 4° C. Thereafter, it was washed with a blocking solution for 10 minutes three times, the secondary antibodies were added thereto, and they were reacted for 1 hour and washed as described above. After adding ECL solution, the membrane was exposed to X-ray film and the amount of protein was measured. The change in the amount of protein was calculated by an optical density with an image analyzer.
(Immunoblotting shows a protein as a band on a membrane.)

The test system of the next experiment is ACC. Put plainly: ACC activation: western blot of ACC and p-ACC protein expression in liver cells. The conditions noted are these: HepG2 liver cells. As to the method:
as §1
The expressions of ACC and p-ACC proteins were measured by a Western blotting as described above.

For experiment [1], the system named is liver cells (HepG2). Put plainly: Fatty acid oxidation in liver cells ([1-14C]-palmitate). Conditions: 6 hours culture, positive control. As to the method: To determine the degree of fatty acid oxidation in liver cells, HepG2 cells were seeded on a 96-well plate. After stabilizing the seeded plate, AICAR and chito-oligosaccharide were added in a concentration of 100 and 500 ppm. After culturing for 6 hours, to the cells was added […] of assay buffer (20 mM HEPES, 25 mM NaHCO3, 1.2 mM KH2PO4, 3 mM glucose, 114 mM NaCl, 4.7 mM KCl, 1.2 mM MgSO4, 2.5 mM CaCl2, 1% ultra fatty acid-free BSA) and they are reacted for 30 minutes. Then, [1-^14C]-palmitate (3.4 μCi; 1.0 μCi/μmole) was incorporated thereto and labeling was carried out for 2 hours. 5% perchloric acid was added to stop the reaction and the amount of radiation was measured.

Experiment [2] concerns liver cells (HepG2). Description: Production of ATP in liver cells (ATP assay kit, luminescence). Conditions: 5 to 500 ppm, 24 hours culture. As to the method:
The production of ATP according to AMPK activation was measured by ATP assay kit. HepG2 cells were seeded on a 96-well plate and the seeded plate was stabilized and, thereafter, AICAR and chito-oligosaccharide were added in a concentration of 5 to 500 ppm. After culturing for 24 hours, the reagent prepared by mixing a substrate and a buffer was added to each well and they were reacted for 30 minutes at a room temperature. Cells were disrupted by mixing them in an orbital shaker and, after stabilizing them for 10 minutes, a luminescence was measured.

Turning to `NC(=O)c1ncn([C@@H]2O[C@H](CO)[C@@H](O)[C@H]2O)c1N` [AICAR, AICA-riboside], the “expression of p-AMPK protein” value in the experiment with AMPK is reported as “increased twice or more”. Besides, in the experiment with ACC (AICAR 1 mM, chito-oligosaccharide concentration not specified), the “amount of p-ACC protein expression” value was “up to twice”. Besides, in the experiment with ACC (western blot), the “total amount of ACC protein expression” value is “not changed”. Moreover, the “increased oxidation of fatty acid” value in the experiment on liver cells (HepG2) [1] is reported as “about 35%”. Further, the “production of ATP” value in the experiment on liver cells (HepG2) [2] was “up to twice”.
